Some test systems named below: CCRF-CEM leukemia; UO-31 renal; MCF7 breast; CAKI-1 renal; 786-0 renal; T-47D breast; LOX IMVI melanoma; OVCAR-3 ovarian; PC-3 prostate; SF-268 CNS; TK-10 renal; SR leukemia; SK-OV-3 ovarian.
Holding throughout (assay): NCI-60 cell line screen, 48 h

Each structure is given as a SMILES string.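 Exposure lasted 48 hours, with cells grown in 96-well plates and compounds tested at five concentrations. TGI denotes the concentration required for complete inhibition of growth.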

From PubChem BioAssay (NCI) come the findings set out here.

As for `Cc1cc(N(CCC#N)CCC#N)ccc1/C(N=Nc1cccc(Cl)c1)=N/NC(=O)c1cc(Cl)ccc1O`, the TGI in the assay with CCRF-CEM leukemia was 37.2 µM; with UO-31 renal it was 55.6 µM; in the assay on MCF7 breast, more than 100 µM; in the assay on CAKI-1 renal it was 44.8 µM; in the assay on 786-0 renal, 64.8 µM; in the assay with T-47D breast, 60.6 µM. Also, the TGI with LOX IMVI melanoma is 42.2 µM; in the assay on OVCAR-3 ovarian it was 16.5 µM; in the assay on PC-3 prostate, 46.2 µM; in the assay with SF-268 CNS, 75.2 µM; with TK-10 renal, 59.7 µM; in the assay with SR leukemia it was more than 100 µM. Further, in the assay with SK-OV-3 ovarian, the TGI was 90.6 µM.

Consider `CC1(c2nc3ccccc3[nH]2)CCC(C(=O)O)C(C)(C)O1` (stereo not drawn), for which the TGI in the assay on CCRF-CEM leukemia, in the assay with UO-31 renal, in the assay with MCF7 breast, with CAKI-1 renal, in the assay with 786-0 renal and in the assay on T-47D breast was more than 100 µM throughout. Further, the TGI in the assay on LOX IMVI melanoma, in the assay on OVCAR-3 ovarian, in the assay on PC-3 prostate, in the assay with SF-268 CNS, in the assay with TK-10 renal and in the assay with SR leukemia was more than 100 µM throughout. Also, the TGI in the assay with SK-OV-3 ovarian is more than 100 µM.

Consider `CC1CN=C(N(Cc2ccccc2)C(=O)Nc2ccc(Cl)c(Cl)c2)S1` (stereo not drawn), for which the TGI was more than 10 µM in the assay with CCRF-CEM leukemia; 97.9 µM with UO-31 renal; more than 100 µM with MCF7 breast; more than 100 µM in the assay on CAKI-1 renal; more than 100 µM in the assay on 786-0 renal; more than 100 µM with T-47D breast. For the same molecule, the TGI with LOX IMVI melanoma, in the assay on OVCAR-3 ovarian, with PC-3 prostate, in the assay on SF-268 CNS, in the assay with TK-10 renal and in the assay with SR leukemia was more than 100 µM in each case. The TGI with SK-OV-3 ovarian is more than 100 µM.

As for `CC1(C)OC(=S)N(c2ccccc2)C12C=Cc1ccccc1O2` (stereo not drawn), the TGI was more than 100 µM with CCRF-CEM leukemia; more than 100 µM in the assay with UO-31 renal; more than 100 µM with MCF7 breast; more than 100 µM in the assay on CAKI-1 renal; more than 100 µM with 786-0 renal; 82.4 µM in the assay with T-47D breast. Besides, the TGI with LOX IMVI melanoma was more than 100 µM; in the assay with OVCAR-3 ovarian it was more than 100 µM; in the assay on PC-3 prostate it was more than 100 µM; with SF-268 CNS, more than 100 µM; in the assay with TK-10 renal, more than 100 µM; in the assay with SR leukemia, 37.2 µM. In the assay on SK-OV-3 ovarian, the TGI worked out at 73 µM.

Consider `COC(=O)[C@]1(NC(=O)c2ccccc2)C[C@H]1C=O`, for which the TGI in the assay with CCRF-CEM leukemia is 51.5 µM; in the assay on UO-31 renal, more than 100 µM; with MCF7 breast, more than 100 µM; with CAKI-1 renal, more than 100 µM; in the assay on 786-0 renal it was more than 100 µM; with T-47D breast it was more than 100 µM. For the same molecule, the TGI was more than 100 µM in the assay with LOX IMVI melanoma; more than 100 µM in the assay with OVCAR-3 ovarian; more than 100 µM in the assay on PC-3 prostate; more than 100 µM in the assay with SF-268 CNS; more than 100 µM in the assay with TK-10 renal; 53.9 µM in the assay with SR leukemia. The molecule also came in with a TGI with SK-OV-3 ovarian of more than 100 µM.

For `CC(=O)OCC(=O)O[C@@H]1[C@H]2[C@@H](OC(=O)c3ccccc3)[C@@H](C)C[C@]2(O)[C@H](OC(C)=O)[C@@]2(C)C(OC(C)=O)[C@]1(OC(C)=O)C[C@H]1C(=O)C(C)(C)C[C@@H]12` (stereo partly drawn), the TGI in the assay with CCRF-CEM leukemia, with UO-31 renal, in the assay on MCF7 breast, with CAKI-1 renal, in the assay with 786-0 renal and with T-47D breast was more than 50 µM throughout. Moreover, the TGI in the assay on LOX IMVI melanoma, in the assay on OVCAR-3 ovarian, in the assay on PC-3 prostate, in the assay on SF-268 CNS, with TK-10 renal and in the assay on SR leukemia was more than 50 µM in each case. Further, the TGI with SK-OV-3 ovarian is more than 50 µM.

As to `Nc1ccc2c(c1)nc1n2C(c2c(F)cccc2F)SC1` (stereo not drawn), the TGI in the assay with CCRF-CEM leukemia, in the assay with UO-31 renal, in the assay with MCF7 breast, in the assay on CAKI-1 renal, with 786-0 renal and in the assay on T-47D breast was more than 100 µM in each case. Further, the TGI with LOX IMVI melanoma, with OVCAR-3 ovarian, in the assay on PC-3 prostate, in the assay with SF-268 CNS, in the assay with TK-10 renal and in the assay on SR leukemia was more than 100 µM throughout. In the assay with SK-OV-3 ovarian, this molecule displayed a TGI of more than 100 µM.

`CCOC(=O)C(=CNc1ccc(NC2=NCC(C)S2)cc1)C(=O)OCC` (stereo not drawn): the TGI with CCRF-CEM leukemia is 1.84 µM; in the assay with UO-31 renal, 73 µM; in the assay on MCF7 breast, more than 100 µM; with CAKI-1 renal, more than 100 µM; with 786-0 renal, 84.6 µM; with T-47D breast, more than 84.5 µM. Besides, the TGI is more than 85.4 µM in the assay with LOX IMVI melanoma; 60.1 µM in the assay with OVCAR-3 ovarian; 62.9 µM in the assay on PC-3 prostate; more than 100 µM in the assay with SF-268 CNS; more than 100 µM in the assay with TK-10 renal; more than 69.8 µM in the assay with SR leukemia. Further, in the assay on SK-OV-3 ovarian, the TGI is more than 100 µM.

As to `CC(=O)NC1C(OCc2ccccc2)OC(CO)C(O)C1OC(C)C(=O)NC(C)C(=O)NC(CCC(=O)NCCCCNc1c2ccccc2nc2cccc([N+](=O)[O-])c12)C(N)=O` (stereo not drawn), the TGI in the assay on CCRF-CEM leukemia is 0.578 µM; with UO-31 renal, 0.339 µM; in the assay with MCF7 breast, 0.652 µM; with CAKI-1 renal it was 0.307 µM; with 786-0 renal, 0.146 µM; in the assay with T-47D breast it was 0.961 µM. Besides, the TGI in the assay on LOX IMVI melanoma is 0.548 µM; with OVCAR-3 ovarian, 1.64 µM; in the assay with PC-3 prostate it was 0.663 µM; with SF-268 CNS, 0.316 µM; with TK-10 renal it was 0.128 µM; in the assay on SR leukemia, 0.0539 µM. Besides, in the assay on SK-OV-3 ovarian, the TGI was found to be 3.55 µM.

Regarding `Cc1ccc(-c2nc(N/N=C/C=C/c3ccccc3)c3ccccc3n2)cc1`, the TGI with CCRF-CEM leukemia is more than 100 µM; in the assay with UO-31 renal it was more than 100 µM; in the assay on MCF7 breast it was 75.9 µM; in the assay on CAKI-1 renal it was more than 100 µM; with 786-0 renal, more than 100 µM; in the assay with T-47D breast it was more than 100 µM. Further, the TGI in the assay with LOX IMVI melanoma was more than 100 µM; in the assay with OVCAR-3 ovarian it was more than 100 µM; in the assay on PC-3 prostate it was more than 100 µM; in the assay on SF-268 CNS, more than 100 µM; in the assay on TK-10 renal, 38.7 µM; in the assay on SR leukemia, more than 100 µM. Further, the TGI in the assay on SK-OV-3 ovarian is more than 100 µM.

Take `O=c1c2cc(S(=O)(=O)O)ccc2nc(COc2ccc(Oc3ccc(Cl)cc3Cl)cc2)n1-c1ccc(Oc2ccc(Cl)cc2)cc1Cl`: the TGI in the assay with CCRF-CEM leukemia is more than 100 µM; with UO-31 renal, 27 µM; in the assay with MCF7 breast, 40.6 µM; in the assay on CAKI-1 renal, more than 100 µM; in the assay on 786-0 renal it was 40.7 µM; with T-47D breast, more than 100 µM. In addition, the TGI with LOX IMVI melanoma is 30.2 µM; in the assay on OVCAR-3 ovarian, 36.9 µM; in the assay on PC-3 prostate it was more than 100 µM; in the assay with SF-268 CNS, 26 µM; in the assay with TK-10 renal it was 58.8 µM; in the assay with SR leukemia, 46.5 µM. Besides, the TGI in the assay with SK-OV-3 ovarian worked out at 49.2 µM.
